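96-well plates; 48 h exposure; 5 concentrations. Endpoints by linear interpolation between flanking doses. Not reached: highest tested concentration assigned. GI50 marks 50% less growth.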 The source made the active and inactive calls. Cut-off read from the data, not from the text of the source: active = GI50 up to about 1.1 µM and inactive = higher.
Columns and labels:
Test in all cases: NCI tumour cell line growth inhibition, 48 h
[1] = tested on: SF-268
[2] = tested on: CCRF-CEM
[3] = tested on: OVCAR-5
[4] = tested on: SF-295
[5] = tested on: SW-620
[6] = tested on: MOLT-4
[7] = tested on: HL-60
[8] = tested on: Hs-578T
[9] = tested on: OVCAR-4
[10] = tested on: SK-MEL-2
[11] = tested on: M14
[12] = tested on: UO-31
[13] = tested on: SNB-75
[14] = tested on: DU-145
[15] = tested on: SK-MEL-5
[16] = tested on: LOX IMVI
[17] = tested on: HCT-116
[18] = tested on: HT-29
[19] = tested on: PC-3
[20] = tested on: HOP-92
[21] = tested on: RPMI-8226
[22] = tested on: SN12C
[23] = tested on: CAKI-1
[24] = tested on: HCT-15
[25] = tested on: NCI-H23
[26] = tested on: TK-10
[27] = tested on: A549
[28] = tested on: HCC 2998
[29] = tested on: SNB-19
[30] = tested on: EKVX
[31] = tested on: MDA-MB-231
[32] = tested on: NCI/ADR-RES
[33] = tested on: IGROV-1
[34] = tested on: MCF7
[35] = tested on: MDA-MB-435
[36] = tested on: KM12
[37] = tested on: SK-OV-3
[38] = tested on: SK-MEL-28
[39] = tested on: COLO 205
[40] = tested on: OVCAR-3
[41] = tested on: OVCAR-8
[42] = tested on: NCI-H460
[43] = tested on: UACC-62
[44] = tested on: ACHN
[45] = tested on: K562
[46] = tested on: Malme-3M
[47] = tested on: UACC-257
[48] = tested on: A498
[49] = tested on: NCI-H226
[50] = tested on: NCI-H522
[51] = tested on: SF-539
[52] = tested on: 786-0
[53] = tested on: T47D
[54] = tested on: BT-549
[55] = tested on: U-251
[56] = tested on: MDA-N
[57] = tested on: RXF 393
[58] = tested on: HOP-62

O=C1C(OC(=O)c2ccccc2)=C(c2ccc(O)cc2)C(=O)C(OC(=O)c2ccccc2)=C1c1ccc(O)cc1 was tested, and the GI50 [1] was > 100 µM (inactive), the GI50 [2] was 42.9 µM (inactive) and the GI50 [3] was > 100 µM (inactive). For the same molecule, the GI50 [4] was 61 µM (inactive), the GI50 [5] was > 100 µM (inactive) and the GI50 [6] was 36 µM (inactive). For the same molecule, the GI50 [7] was > 100 µM (inactive), the GI50 [8] was > 100 µM (inactive) and the GI50 [9] was 51.9 µM (inactive). For the same molecule, the GI50 [10] was 32 µM (inactive), the GI50 [11] was > 100 µM (inactive) and the GI50 [12] was > 100 µM (inactive). For the same molecule, the GI50 [13] was 78.5 µM (inactive), the GI50 [14] was > 100 µM (inactive) and the GI50 [15] was > 100 µM (inactive). For the same molecule, the GI50 [16] was 76.4 µM (inactive), the GI50 [17] was > 100 µM (inactive) and the GI50 [18] was > 100 µM (inactive). The GI50 [19] was > 100 µM (inactive), the GI50 [20] was > 100 µM (inactive) and the GI50 [21] was > 100 µM (inactive). The GI50 [22] was > 100 µM (inactive), the GI50 [23] was > 100 µM (inactive) and the GI50 [24] was greater than 100 µM. For the same molecule, the GI50 [25] was > 100 µM (inactive), the GI50 [26] was > 100 µM (inactive) and the GI50 [27] was > 100 µM (inactive). For the same molecule, the GI50 [28] was 40.3 µM (inactive), the GI50 [29] was 46 µM (inactive) and the GI50 [30] was > 100 µM (inactive). The GI50 [31] was > 100 µM (inactive), the GI50 [32] was > 100 µM (inactive) and the GI50 [33] was > 100 µM (inactive). For the same molecule, the GI50 [34] was > 100 µM (inactive), the GI50 [35] was > 100 µM (inactive) and the GI50 [36] was 60.5 µM (inactive). The GI50 [37] was 56.2 µM (inactive), the GI50 [38] was > 100 µM (inactive) and the GI50 [39] was > 100 µM (inactive). For the same molecule, the GI50 [40] was 38.1 µM (inactive), the GI50 [41] was > 100 µM (inactive) and the GI50 [42] was 74.1 µM (inactive). The GI50 [43] was 44.7 µM (inactive), the GI50 [44] was > 100 µM (inactive) and the GI50 [45] was > 100 µM (inactive). The GI50 [46] was > 100 µM (inactive), the GI50 [47] was > 100 µM (inactive) and the GI50 [48] was > 100 µM (inactive). For the same molecule, the GI50 [49] was > 100 µM (inactive), the GI50 [50] was > 100 µM (inactive) and the GI50 [51] was > 100 µM (inactive). The GI50 [52] was > 100 µM (inactive), the GI50 [53] was > 100 µM (inactive) and the GI50 [54] was > 100 µM (inactive). For the same molecule, the GI50 [55] was 40.5 µM (inactive) and the GI50 [56] was > 100 µM (inactive).
In the case of OCCN(CCO)c1ncnc2[nH]cnc12, the GI50 [1] is reported as > 100 µM (inactive), the GI50 [2] is reported as > 100 µM (inactive) and the GI50 [3] is reported as 60.8 µM (inactive). For the same molecule, the GI50 [57] was > 100 µM (inactive), the GI50 [4] was > 100 µM (inactive) and the GI50 [5] was > 100 µM (inactive). The GI50 [6] was > 100 µM (inactive), the GI50 [8] was 53.6 µM (inactive) and the GI50 [9] was > 100 µM (inactive). The GI50 [11] was > 100 µM (inactive), the GI50 [12] was 63.4 µM (inactive) and the GI50 [14] was > 100 µM (inactive). The GI50 [15] was > 100 µM (inactive), the GI50 [16] was > 100 µM (inactive) and the GI50 [17] was > 100 µM (inactive). For the same molecule, the GI50 [18] was > 100 µM (inactive), the GI50 [19] was > 100 µM (inactive) and the GI50 [20] was > 100 µM (inactive). The GI50 [21] was > 100 µM (inactive), the GI50 [22] was > 100 µM (inactive) and the GI50 [23] was > 100 µM (inactive). For the same molecule, the GI50 [24] was greater than 100 µM, the GI50 [25] was > 100 µM (inactive) and the GI50 [26] was 67.1 µM (inactive). The GI50 [27] was > 100 µM (inactive), the GI50 [28] was > 100 µM (inactive) and the GI50 [29] was > 100 µM (inactive). The GI50 [30] was 68.5 µM (inactive), the GI50 [31] was 80.9 µM (inactive) and the GI50 [32] was > 100 µM (inactive). The GI50 [33] was > 100 µM (inactive), the GI50 [58] was > 100 µM (inactive) and the GI50 [34] was > 100 µM (inactive). The GI50 [35] was > 100 µM (inactive), the GI50 [36] was > 100 µM (inactive) and the GI50 [37] was > 100 µM (inactive). The GI50 [38] was > 100 µM (inactive), the GI50 [39] was > 100 µM (inactive) and the GI50 [40] was > 100 µM (inactive). For the same molecule, the GI50 [41] was > 100 µM (inactive), the GI50 [42] was > 100 µM (inactive) and the GI50 [43] was > 100 µM (inactive). For the same molecule, the GI50 [44] was > 100 µM (inactive), the GI50 [45] was > 100 µM (inactive) and the GI50 [46] was > 100 µM (inactive). The GI50 [47] was > 100 µM (inactive), the GI50 [48] was > 100 µM (inactive) and the GI50 [49] was > 100 µM (inactive). For the same molecule, the GI50 [50] was > 100 µM (inactive), the GI50 [52] was > 100 µM (inactive) and the GI50 [53] was > 100 µM (inactive). For the same molecule, the GI50 [54] was > 100 µM (inactive), the GI50 [55] was > 100 µM (inactive) and the GI50 [56] was > 100 µM (inactive).
